Data taken from ChEMBL document CHEMBL1143353, “Pyrazolo[1,5-a]-1,3,5-triazine as a purine bioisostere: access to potent cyclin-dependent kinase inhibitor (R)-roscovitine analogue” (J Med Chem, 2009).

Experiments:
MDA-MB-468 = assay: cells; settings: Homo sapiens, MDA-MB-468, 72 h
Description: Antiproliferative activity against human MDA-MB-468 cells after 72 hrs by ViaLight assay

T47D = assay: cells; settings: Homo sapiens, 72 h
Description: Antiproliferative activity against human T47D cells after 72 hrs by ViaLight assay

U-251 = assay: cells; settings: Homo sapiens, U-251, 72 h
Description: Antiproliferative activity against human U251 cells after 72 hrs by ViaLight assay

ACHN = assay: cells; settings: Homo sapiens, 72 h
Description: Antiproliferative activity against human ACHN cells after 72 hrs by ViaLight assay

SR = assay: cells; settings: Homo sapiens, 72 h
Description: Antiproliferative activity against human SR cells after 72 hrs by ViaLight assay

UO-31 = assay: cells; settings: Homo sapiens, UO-31, 72 h
Description: Antiproliferative activity against human UO31 cells after 72 hrs by ViaLight assay

CAKI-1 = assay: cells; settings: Homo sapiens, CAKI-1, 72 h
Description: Antiproliferative activity against human Caki1 cells after 72 hrs by ViaLight assay

SNB-19 = assay: cells; settings: Homo sapiens, SNB-19, 72 h
Description: Antiproliferative activity against human SNB19 cells after 72 hrs by ViaLight assay

SNB-75 = assay: cells; settings: Homo sapiens, SNB-75, 72 h
Description: Antiproliferative activity against human SNB75 cells after 72 hrs by ViaLight assay

LOX IMVI = assay: cells; settings: Homo sapiens, 72 h
Description: Antiproliferative activity against human LOXIMVI cells after 72 hrs by ViaLight assay

HEK293 = assay: Antiproliferative activity against human HEK293 cells after 48 hrs by MTS reduction assay; assay type: cell-based; settings: HEK293, 48 h
K562 = assay: cells; settings: Homo sapiens, K562, 72 h
Description: Antiproliferative activity against human K562 cells after 72 hrs by ViaLight assay

HCT-15 = assay: cells; settings: Homo sapiens, HCT-15, 72 h
Description: Antiproliferative activity against human HCT15 cells after 72 hrs by ViaLight assay

OVCAR-4 = assay: cells; settings: Homo sapiens, OVCAR-4, 72 h
Description: Antiproliferative activity against human OVCAR4 cells after 72 hrs by ViaLight assay

NCI-H322M = assay: cells; settings: Homo sapiens, 72 h
Description: Antiproliferative activity against human NCI-H322M cells after 72 hrs by ViaLight assay

A498 = assay: cells; settings: Homo sapiens, A498, 72 h
Description: Antiproliferative activity against human A498 cells after 72 hrs by ViaLight assay

TK-10 = assay: cells; settings: Homo sapiens, TK-10, 72 h
Description: Antiproliferative activity against human TK10 cells after 72 hrs by ViaLight assay

A549 = assay: cells; settings: Homo sapiens, A549, 72 h
Description: Antiproliferative activity against human A549 cells after 72 hrs by ViaLight assay

MOLT-4 = assay: cells; settings: Homo sapiens, MOLT-4, 72 h
Description: Antiproliferative activity against human MOLT4 cells after 72 hrs by ViaLight assay

MCF7 = assay: cells; settings: Homo sapiens, MCF7, 72 h
Description: Antiproliferative activity against human MCF7 cells after 72 hrs by ViaLight assay

cells = settings: Homo sapiens, RPMI8266, 72 h
Description: Antiproliferative activity against human RPMI8266 cells after 72 hrs by ViaLight assay

PC-3 = assay: cells; settings: Homo sapiens, PC-3, 72 h
Description: Antiproliferative activity against human PC3 cells after 72 hrs by ViaLight assay

IGROV-1 = assay: cells; settings: Homo sapiens, IGROV-1, 72 h
Description: Antiproliferative activity against human IGROV1 cells after 72 hrs by ViaLight assay

M14 = assay: cells; settings: Homo sapiens, M14, 72 h
Description: Antiproliferative activity against human M14 cells after 72 hrs by ViaLight assay

MDA-MB-231 = assay: cells; settings: Homo sapiens, MDA-MB-231, 72 h
Description: Antiproliferative activity against human MDA-MB-231 cells after 72 hrs by ViaLight assay

HCT-116 = assay: cells; settings: Homo sapiens, HCT-116, 72 h
Description: Antiproliferative activity against human HCT116 cells after 72 hrs by ViaLight assay

Malme-3M = assay: cells; settings: Homo sapiens, 72 h
Description: Antiproliferative activity against human MALME-3M cells after 72 hrs by ViaLight assay

UACC-62 = assay: cells; settings: Homo sapiens, UACC-62, 72 h
Description: Antiproliferative activity against human UACC62 cells after 72 hrs by ViaLight assay

RXF 393 = assay: cells; settings: Homo sapiens, RXF 393, 72 h
Description: Antiproliferative activity against human RFX393 cells after 72 hrs by ViaLight assay

SF-295 = assay: cells; settings: Homo sapiens, SF-295, 72 h
Description: Antiproliferative activity against human SF295 cells after 72 hrs by ViaLight assay

## CC[C@H](CO)Nc1nc(NCc2ccccc2)n2ncc(C(C)C)c2n1
MDA-MB-468
  GI50: 1.88 µM
  TGI: 5.19 µM
MDA-MB-468; read-out: LC50
  CC50: 63.5 µM
MDA-MB-468; read-out: pGI50 (converted)
  GI50: 1.86 µM
MDA-MB-468; read-out: pLC50 (converted)
  CC50: 63.1 µM
MDA-MB-468; read-out: pTGI
  TGI: 5.25 µM
T47D
  GI50: 2.48 µM
  TGI: 13.3 µM
T47D; read-out: LC50
  CC50: > 100 µM
T47D; read-out: pGI50 (converted)
  GI50: 3.09 µM
T47D; read-out: pLC50 (converted)
  CC50: 100 µM
T47D; read-out: pTGI
  TGI: 12.9 µM
U-251
  GI50: 1.4 µM
  TGI: 10.5 µM
U-251; read-out: LC50
  CC50: > 100 µM
U-251; read-out: pGI50 (converted)
  GI50: 1.41 µM
U-251; read-out: pLC50 (converted)
  CC50: 100 µM
U-251; read-out: pTGI
  TGI: 10.5 µM
ACHN
  GI50: 0.81 µM
  TGI: 10.7 µM
ACHN; read-out: LC50
  CC50: 49.1 µM
ACHN; read-out: pGI50 (converted)
  GI50: 0.813 µM
ACHN; read-out: pLC50 (converted)
  CC50: 49 µM
ACHN; read-out: pTGI
  TGI: 10.7 µM
SR
  GI50: 0.25 µM
  TGI: 1.59 µM
SR; read-out: LC50
  CC50: > 100 µM
SR; read-out: pGI50 (converted)
  GI50: 2.51 µM
SR; read-out: pLC50 (converted)
  CC50: 100 µM
SR; read-out: pTGI
  TGI: 1.58 µM
UO-31
  GI50: 1.59 µM
  TGI: > 100 µM
UO-31; read-out: pGI50 (converted)
  GI50: 1.58 µM
UO-31; read-out: pTGI
  TGI: 100 µM
CAKI-1
  GI50: 1.02 µM
  TGI: 8.35 µM
CAKI-1; read-out: LC50
  CC50: > 100 µM
CAKI-1; read-out: pGI50 (converted)
  GI50: 1.05 µM
CAKI-1; read-out: pLC50 (converted)
  CC50: 100 µM
CAKI-1; read-out: pTGI
  TGI: 8.13 µM
SNB-19
  GI50: 1.44 µM
  TGI: 12.3 µM
SNB-19; read-out: LC50
  CC50: > 100 µM
SNB-19; read-out: pGI50 (converted)
  GI50: 1.15 µM
SNB-19; read-out: pLC50 (converted)
  CC50: 100 µM
SNB-19; read-out: pTGI
  TGI: 12.3 µM
SNB-75
  GI50: 1.31 µM
  TGI: 3.33 µM
SNB-75; read-out: LC50
  CC50: 8.48 µM
SNB-75; read-out: pGI50 (converted)
  GI50: 1.32 µM
SNB-75; read-out: pLC50 (converted)
  CC50: 8.51 µM
SNB-75; read-out: pTGI
  TGI: 3.31 µM
LOX IMVI
  GI50: 1.07 µM
  TGI: 10.3 µM
LOX IMVI; read-out: LC50
  CC50: 34.4 µM
LOX IMVI; read-out: pGI50 (converted)
  GI50: 1.07 µM
LOX IMVI; read-out: pLC50 (converted)
  CC50: 34.7 µM
LOX IMVI; read-out: pTGI
  TGI: 10.2 µM
HEK293
  IC50: 7.6 µM
K562
  GI50: 2.44 µM
  TGI: 7.38 µM
K562; read-out: LC50
  CC50: > 100 µM
K562; read-out: pGI50 (converted)
  GI50: 2.45 µM
K562; read-out: pLC50 (converted)
  CC50: 100 µM
K562; read-out: pTGI
  TGI: 7.41 µM
HCT-15
  GI50: 0.87 µM
  TGI: 10.5 µM
HCT-15; read-out: LC50
  CC50: > 100 µM
HCT-15; read-out: pGI50 (converted)
  GI50: 8.91 µM
HCT-15; read-out: pLC50 (converted)
  CC50: 100 µM
HCT-15; read-out: pTGI
  TGI: 10.5 µM
OVCAR-4
  GI50: 2.57 µM
  TGI: 37 µM
OVCAR-4; read-out: LC50
  CC50: > 100 µM
OVCAR-4; read-out: pGI50 (converted)
  GI50: 2.63 µM
OVCAR-4; read-out: pLC50 (converted)
  CC50: 100 µM
OVCAR-4; read-out: pTGI
  TGI: 0.372 µM
NCI-H322M
  GI50: 1.86 µM
  TGI: 8.92 µM
NCI-H322M; read-out: LC50
  CC50: > 100 µM
NCI-H322M; read-out: pGI50 (converted)
  GI50: 1.86 µM
NCI-H322M; read-out: pLC50 (converted)
  CC50: 100 µM
NCI-H322M; read-out: pTGI
  TGI: 8.91 µM
A498
  GI50: 1.25 µM
  TGI: 3.44 µM
A498; read-out: LC50
  CC50: 9.47 µM
A498; read-out: pGI50 (converted)
  GI50: 1.12 µM
A498; read-out: pLC50 (converted)
  CC50: 9.55 µM
A498; read-out: pTGI
  TGI: 3.31 µM
TK-10
  GI50: 2 µM
  TGI: 10.9 µM
TK-10; read-out: LC50
  CC50: > 100 µM
TK-10; read-out: pGI50 (converted)
  GI50: 2 µM
TK-10; read-out: pLC50 (converted)
  CC50: 100 µM
TK-10; read-out: pTGI
  TGI: 11 µM
A549
  GI50: 1.58 µM
  TGI: 41.4 µM
A549; read-out: LC50
  CC50: > 100 µM
A549; read-out: pGI50 (converted)
  GI50: 2.51 µM
A549; read-out: pLC50 (converted)
  CC50: 100 µM
A549; read-out: pTGI
  TGI: 41.7 µM
MOLT-4
  GI50: 2.18 µM
  TGI: 9.45 µM
MOLT-4; read-out: LC50
  CC50: > 100 µM
MOLT-4; read-out: pGI50 (converted)
  GI50: 2.19 µM
MOLT-4; read-out: pLC50 (converted)
  CC50: 100 µM
MOLT-4; read-out: pTGI
  TGI: 9.55 µM
MCF7
  GI50: 0.59 µM
  TGI: 7.99 µM
MCF7; read-out: LC50
  CC50: > 100 µM
MCF7; read-out: pGI50 (converted)
  GI50: 0.589 µM
MCF7; read-out: pLC50 (converted)
  CC50: 100 µM
MCF7; read-out: pTGI
  TGI: 7.94 µM
cells
  GI50: 2.23 µM
  TGI: 6.93 µM
cells; read-out: LC50
  CC50: > 100 µM
cells; read-out: pGI50 (converted)
  GI50: 2.24 µM
cells; read-out: pLC50 (converted)
  CC50: 100 µM
cells; read-out: pTGI
  TGI: 6.92 µM
PC-3
  GI50: 0.93 µM
  TGI: 12.3 µM
PC-3; read-out: LC50
  CC50: > 100 µM
PC-3; read-out: pGI50 (converted)
  GI50: 0.117 µM
PC-3; read-out: pLC50 (converted)
  CC50: 100 µM
PC-3; read-out: pTGI
  TGI: 0.123 µM
IGROV-1
  GI50: 0.78 µM
  TGI: > 100 µM
IGROV-1; read-out: LC50
  CC50: > 100 µM
IGROV-1; read-out: pGI50 (converted)
  GI50: 0.776 µM
IGROV-1; read-out: pLC50 (converted)
  CC50: 100 µM
IGROV-1; read-out: pTGI
  TGI: 100 µM
M14
  GI50: 2 µM
  TGI: 7.93 µM
M14; read-out: LC50
  CC50: 34.3 µM
M14; read-out: pGI50 (converted)
  GI50: 2 µM
M14; read-out: pLC50 (converted)
  CC50: 34.7 µM
M14; read-out: pTGI
  TGI: 7.94 µM
MDA-MB-231
  GI50: 2.37 µM
  TGI: 9.47 µM
MDA-MB-231; read-out: LC50
  CC50: > 100 µM
MDA-MB-231; read-out: pGI50 (converted)
  GI50: 2.4 µM
MDA-MB-231; read-out: pLC50 (converted)
  CC50: 100 µM
MDA-MB-231; read-out: pTGI
  TGI: 9.55 µM
HCT-116
  GI50: 0.51 µM
  TGI: 15 µM
HCT-116; read-out: LC50
  CC50: > 100 µM
HCT-116; read-out: pGI50 (converted)
  GI50: 0.513 µM
HCT-116; read-out: pLC50 (converted)
  CC50: 100 µM
HCT-116; read-out: pTGI
  TGI: 15.1 µM
Malme-3M
  GI50: 2.6 µM
  TGI: 6.99 µM
Malme-3M; read-out: LC50
  CC50: 43.5 µM
Malme-3M; read-out: pGI50 (converted)
  GI50: 2.63 µM
Malme-3M; read-out: pLC50 (converted)
  CC50: 43.7 µM
Malme-3M; read-out: pTGI
  TGI: 6.92 µM
UACC-62
  GI50: 1.37 µM
  TGI: 5.5 µM
UACC-62; read-out: LC50
  CC50: 31.1 µM
UACC-62; read-out: pGI50 (converted)
  GI50: 1.38 µM
UACC-62; read-out: pLC50 (converted)
  CC50: 30.9 µM
UACC-62; read-out: pTGI
  TGI: 5.5 µM
RXF 393
  GI50: 0.25 µM
  TGI: 0.79 µM
RXF 393; read-out: LC50
  CC50: 4.25 µM
RXF 393; read-out: pGI50 (converted)
  GI50: 0.251 µM
RXF 393; read-out: pLC50 (converted)
  CC50: 4.27 µM
RXF 393; read-out: pTGI
  TGI: 0.794 µM
SF-295
  GI50: 0.81 µM
  TGI: 4.74 µM
SF-295; read-out: pGI50 (converted)
  GI50: 0.813 µM
SF-295; read-out: pTGI
  TGI: 4.79 µM
